According to US10323027B2, “2,3-dihydro-4H-1,3-benzoxazin-4-one derivatives as modulators of cholinergic muscarinic M1 receptor” (Takeda Pharmaceutical Company Limited, priority 2015, dated 2019):
Structures can show the parent of a compound that is named as a salt.

Molecular target: T1, human M1 receptor (hCHRM1) (Homo sapiens, UniProt P11229)
T1 construct: expressed in transfected cells
T1 sequence (P11229 1-460): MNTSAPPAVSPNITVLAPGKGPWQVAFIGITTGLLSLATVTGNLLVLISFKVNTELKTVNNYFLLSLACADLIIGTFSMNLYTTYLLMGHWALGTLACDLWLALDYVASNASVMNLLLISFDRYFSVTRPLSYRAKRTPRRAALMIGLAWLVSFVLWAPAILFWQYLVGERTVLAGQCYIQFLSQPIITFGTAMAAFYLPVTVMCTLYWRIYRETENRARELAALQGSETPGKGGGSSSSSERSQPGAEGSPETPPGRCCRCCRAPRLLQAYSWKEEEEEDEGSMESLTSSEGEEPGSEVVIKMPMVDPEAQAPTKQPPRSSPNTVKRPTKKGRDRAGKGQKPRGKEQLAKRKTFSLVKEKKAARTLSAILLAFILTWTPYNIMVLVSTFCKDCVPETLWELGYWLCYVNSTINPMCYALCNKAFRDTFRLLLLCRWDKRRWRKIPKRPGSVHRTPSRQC
Assay: Measurement of M1 receptor positive allosteric modulator (M1PAM) activity, Ca2+ fluorescence by FDSS/μ cell (Experimental Example 2)
Format: cell-based
Details: for activity (%) at 10 μM: 10 μM test compound, 100% = acetylcholine 1 μM, 0% = DMSO; for EC50: inflection point of concentration-dependent curve, in presence of acetylcholine at EC20 (0.8-1.0 nM), CHO-K1 cells expressing hCHRM1, read-out: IP value
Description: Measurement of M1 Receptor Positive Allosteric Modulator (M1PAM) Activity
The activity of a test compound in the presence of acetylcholine at EC20 concentration (final concentration 0.8-1.0 nM), which affords an action corresponding to about 20% of the maximum activity, was measured as PAM activity. The method is as follows. CHO-K1 cells stably expressing a human M1 receptor (hCHRM1) were plated on a 384-well black clear bottom plate (BD Falcon) at 5,000 cells/well, and cultured in an incubator at 37° C., 5% CO2 for 1 day. The medium in the cell plate was removed, and a dye solution (prepared by adding Recording medium (DOJINDO LABORATORIES) to a final concentration of 1×concentration, Fluo-4 AM (DOJINDO LABORATORIES) to a final concentration of 2.5 μg/mL, Pluronic F127 (DOJINDO LABORATORIES) to a final concentration of 0.08%, and probenecid (DOJINDO LABORATORIES) to a final concentration of 1.25 mM to assay buffer (HBSS (Invitrogen), 20 mM HEPES (Invitrogen), 0.1% BSA (Wako Pure Chemical Industries, Ltd.))) was added at 30 μL/well. The cells were left standing in the incubator at 37° C., 5% CO2 for 30 min, and further left standing at room temperature for 30 min. A test compound prepared by diluting with assay buffer containing 3.2-4.0 nM acetylcholine was added at 10 μL/well, and the fluorescence was measured by FDSS/μ cell (Hamamatsu Photonics K.K.) for 1 min every 1 second. With the definition that the amount of change in the fluorescence on addition of acetylcholine (final concentration 1 μM) is 100% and that on addition of DMSO instead of a test compound is 0%, the activity (%) of the test compound was calculated, and the inflection point in the concentration-dependent curve of the test compound was calculated as IP values.

| SMILES | activity (%) at 10 μM | EC50 |
| --- | --- | --- |
| Cc1c(Cc2ccc(-n3cccn3)nc2)cc2c(c1Cl)OCN([C@H]1COCC[C@@H]1O)C2=O [Example 106, 1,5-anhydro-2-(8-chloro-7-methyl-4-oxo-6-((6-(1H-pyrazol-1-yl)pyridin-3-yl)methyl)-2H-1,3-benzoxazin-3(4H)-yl)-2,4-dideoxy-L-threo-pentitol] | 113% | 6.9 nM |
| Cc1cc(-c2ccc(Cc3cc4c(c(F)c3C)OCN([C@H]3CCC[C@@H]3O)C4=O)cn2)ccn1 [Example 90, 8-fluoro-3-((1S,2S)-2-hydroxycyclopentyl)-7-methyl-6-((2′-methyl-2,4′-bipyridin-5-yl)methyl)-2,3-dihydro-4H-1,3-benzoxazin-4-one] | 102% | 4 nM |
| Cc1cc2c(cc1Cc1ccc(-n3cccn3)nc1)C(=O)N([C@H]1CCCC[C@@H]1O)CO2 (single isomer, unassigned) [Example 95] | 102% | 13 nM |
| Cc1c(Cc2ccc(-n3cccn3)nc2)cc2c(c1Cl)OCN([C@H]1CCC[C@@H]1O)C2=O (single isomer, unassigned) [Example 97, 8-chloro-3-(trans-2-hydroxycyclopentyl)-7-methyl-6-((6-(1H-pyrazol-1-yl)pyridin-3-yl)methyl)-2,3-dihydro-4H-1,3-benzoxazin-4-one (optical isomer: longer retention time)] | 99% | – |
| Cc1c(Cc2ccc(-n3cccn3)cc2)cc2c(c1F)OCN(CC(C)(C)O)C2=O [Example 101, 8-fluoro-3-(2-hydroxy-2-methylpropyl)-7-methyl-6-(4-(1H-pyrazol-1-yl)benzyl)-2,3-dihydro-4H-1,3-benzoxazin-4-one] | 91% | 61 nM |
| Cc1cc(-c2ccc(Cc3cc4c(c(F)c3C)OCN([C@H]3CCC[C@@H]3O)C4=O)cc2)cnn1 [Example 105, 8-fluoro-3-((1S,2S)-2-hydroxycyclopentyl)-7-methyl-6-(4-(6-methylpyridazin-4-yl)benzyl)-2,3-dihydro-4H-1,3-benzoxazin-4-one hydrochloride] | 98% | 5.6 nM |
| Cc1c(Cc2ccc(-c3ccnc(F)c3)nc2)cc2c(c1F)OCN([C@H]1CCC[C@@H]1O)C2=O [Example 89, 8-fluoro-6-((2′-fluoro-2,4′-bipyridin-5-yl)methyl)-3-((1S,2S)-2-hydroxycyclopentyl)-7-methyl-2,3-dihydro-4H-1,3-benzoxazin-4-one] | 102% | 12 nM |
| Cc1c(Cc2ccc(-c3ccn(C)n3)cc2)cc2c(c1C)OCN([C@H]1COCC[C@@H]1O)C2=O [Example 100, 1,5-anhydro-2,4-dideoxy-2-(7,8-dimethyl-6-(4-(1-methyl-1H-pyrazol-3-yl)benzyl)-4-oxo-2H-1,3-benzoxazin-3(4H)-yl)-L-threo-pentitol] | 99% | 4.4 nM |
| CCn1ccc(-c2ccc(Cc3cc4c(c(F)c3C)OCN([C@H]3CCC[C@@H]3O)C4=O)cn2)n1 [Example 91, 6-((6-(1-ethyl-1H-pyrazol-3-yl)pyridin-3-yl)methyl)-8-fluoro-3-((1S,2S)-2-hydroxycyclopentyl)-7-methyl-2,3-dihydro-4H-1,3-benzoxazin-4-one] | 105% | 4 nM |
| Cc1c(Cc2ccc(C#C[Si](C)(C)C)nc2)cc2c(c1C)OCN([C@H]1COCC[C@@H]1O)C2=O [Example 111, 1,5-anhydro-2,4-dideoxy-2-(7,8-dimethyl-4-oxo-6-((6-((trimethylsilyl)ethynyl)pyridin-3-yl)methyl)-2H-1,3-benzoxazin-3(4H)-yl)-L-threo-pentitol] | 96% | 68 nM |
| Cc1cc2c(cc1Cc1ccc(-n3cccn3)nc1)C(=O)N([C@H]1COCC[C@@H]1O)CO2 [Example 103, 1,5-anhydro-2,4-dideoxy-2-(7-methyl-4-oxo-6-((6-(1H-pyrazol-1-yl)pyridin-3-yl)methyl)-2H-1,3-benzoxazin-3(4H)-yl)-L-threo-pentitol] | 103% | 15 nM |
| Cc1c(Cc2ccc(-c3ccn(C)n3)nc2)cc2c(c1F)OCN([C@H]1CCCC[C@@H]1O)C2=O [Example 92, 8-fluoro-3-((1S,2S)-2-hydroxycyclohexyl)-7-methyl-6-((6-(1-methyl-1H-pyrazol-3-yl)pyridin-3-yl)methyl)-2,3-dihydro-4H-1,3-benzoxazin-4-one] | 101% | 3.4 nM |
| Cc1c(Cc2ccc(-n3cccn3)nc2)cc2c(c1F)OCN([C@H]1COCC[C@@H]1O)C2=O [Example 102, 1,5-anhydro-2,4-dideoxy-2-(8-fluoro-7-methyl-4-oxo-6-((6-(1H-pyrazol-1-yl)pyridin-3-yl)methyl)-2H-1,3-benzoxazin-3(4H)-yl)-L-threo-pentitol] | 98% | 8.7 nM |
| Cc1c(Cc2ccc(-n3cccn3)nc2)cc2c(c1C)OCN([C@H]1COCC[C@@H]1O)C2=O [Example 98, 1,5-anhydro-2,4-dideoxy-2-(7,8-dimethyl-4-oxo-6-((6-(1H-pyrazol-1-yl)pyridin-3-yl)methyl)-2H-1,3-benzoxazin-3(4H)-yl)-L-threo-pentitol] | 103% | 4.9 nM |
| CCc1cc2c(cc1Cc1ccc(-n3cccn3)cc1)C(=O)N([C@H]1COCC[C@@H]1O)CO2 [Example 107, 1,5-anhydro-2,4-dideoxy-2-(7-ethyl-4-oxo-6-(4-(1H-pyrazol-1-yl)benzyl)-2H-1,3-benzoxazin-3(4H)-yl)-L-threo-pentitol] | 99% | 5.5 nM |

Second part, the compound after the results:

| activity (%) at 10 μM | EC50 | SMILES |
| --- | --- | --- |
| 97% | 5.7 nM | COc1ccc(Cc2cc3c(c(Cl)c2C)OCN([C@H]2COCC[C@@H]2O)C3=O)cn1 [Example 109, 1,5-anhydro-2-(8-chloro-6-((6-methoxypyridin-3-yl)methyl)-7-methyl-4-oxo-2H-1,3-benzoxazin-3(4H)-yl)-2,4-dideoxy-L-threo-pentitol] |
| 99% | 4.8 nM | C=Cc1ccc(Cc2cc3c(c(C)c2C)OCN([C@H]2COCC[C@@H]2O)C3=O)cn1 [Example 110, 1,5-anhydro-2,4-dideoxy-2-(7,8-dimethyl-4-oxo-6-((6-vinylpyridine-3-yl)methyl)-2H-1,3-benzoxazin-3(4H)-yl)-L-threo-pentitol] |
| 96% | 7 nM | Cc1c(Cc2ccc3nn(C)cc3c2)cc2c(c1C)OCN([C@H]1COCC[C@@H]1O)C2=O [Example 116, 1,5-anhydro-2,4-dideoxy-2-(7,8-dimethyl-6-((2-methyl-2H-indazol-5-yl)methyl)-4-oxo-2H-1,3-benzoxazin-3(4H)-yl)-L-threo-pentitol] |
| 101% | 10 nM | Cc1cc2c(cc1Cc1ccc(Cl)nc1)C(=O)N([C@H]1CCCC[C@@H]1O)CO2 [Example 140, 6-((6-chloropyridin-3-yl)methyl)-3-((1S,2S)-2-hydroxycyclohexyl)-7-methyl-2,3-dihydro-4H-1,3-benzoxazin-4-one] |
| 99% | 9.1 nM | C#Cc1ccc(Cc2cc3c(c(C)c2C)OCN([C@H]2COCC[C@@H]2O)C3=O)cn1 [Example 112, 1,5-anhydro-2,4-dideoxy-2-(6-((6-ethynylpyridine-3-yl)methyl)-7,8-dimethyl-4-oxo-2H-1,3-benzoxazin-3(4H)-yl)-L-threo-pentitol] |
| 99% | 38 nM | Cc1c(Cc2ccc(-n3nccn3)cc2)cc2c(c1C)OCN([C@H]1COCC[C@@H]1O)C2=O [Example 142, 1,5-anhydro-2,4-dideoxy-2-(7,8-dimethyl-4-oxo-6-(4-(2H-1,2,3-triazol-2-yl)benzyl)-2H-1,3-benzoxazin-3(4H)-yl)-L-threo-pentitol] |
| 99% | 5.3 nM | Cc1c(Cc2ccc(-c3ccn(C)n3)cc2)cc2c(c1F)OCN([C@H]1COCC[C@@H]1O)C2=O [Example 108, 1,5-anhydro-2,4-dideoxy-2-(8-fluoro-7-methyl-6-(4-(1-methyl-1H-pyrazol-3-yl)benzyl)-4-oxo-2H-1,3-benzoxazin-3(4H)-yl)-L-threo-pentitol] |
